Source: article PMC4793533 (BMC obesity, 2016)
Each block holds one molecule with its values, some of them ahead of it.

How the values were obtained:
[1] = Recovery of radioactivity in excreta (urine, faeces, cage wash), liver and gastrointestinal tract contents; format: in vivo, female Göttingen minipigs
Experimental: The study consisted of two treatment groups, each consisting of six female Göttingen minipigs. Group A served as the untreated group (control) and group B was pre-treated with polyglucosamine as follows; the animals of group B were dosed with 2 tablets of 500 mg formoline […] (1 g formoline […] in total) followed by approximately 10 ml of water via a syringe. The 2 tablets of polyglucosamine were inserted into 2 gelatine capsules. The minipigs were trained to eat these capsules. Thereafter, animals of both groups were allowed to drink water ad libitum. […] The dosing capsules were prepared the day before the dose administration based on the bodyweight determined shortly before dosing and stored under nitrogen and protected from light at 2-10 °C. Immediately following dosing all animals received approximately 10 ml of water via a syringe. After 15 min, animals were allowed to drink water and eat their morning meal. […] The animals were housed in stainless steel metabolism cages under test conditions, 48 h prior to the experimental start date (dosing). Urine and faeces was collected at ambient temperature at 24 h time intervals, starting at 2 days prior to dosing and ending at 144 h post-dose. At each collection period, the cage was rinsed with 100 mL demi-water. […] The cannula was rinsed with physiological saline after each blood sampling. After the last blood sampling of the day the cannula was filled with 3 % poly vinyl pyrrolidone (PVP) and heparin, and closed with a lid. Subsamples of whole blood were collected for analysis and the remaining blood was used for preparation of plasma by centrifugation for 10 min at 2000 g. At the end of the experiment, the cages were rinsed thoroughly with water/ethanol/Triton X-100 (100/100/1; v/v/v). The minipigs were intravenously anaesthetized via the catheter with 60 mg sodium-pentobarbital per kg bodyweight. Next, the animals were sacrificed by exsanguination from the carotid artery. At sacrifice, the complete liver and contents of the gastrointestinal tract were collected. Prior to analysis of radioactivity, the faeces, liver and contents of the gastrointestinal tract were homogenized using an ultrathurrax. Radioactivity in all samples was determined by liquid scintillation counting on a Tri-Carb 3100TR liquid scintillation counter using QuantaSmartTM software. All counts were converted to DPM using tSIE/AEC (transformed Spectral Index of external standards coupled to Automatic Efficiency Correction). Radioactivity in faeces, blood and liver tissue was determined by combustion analysis using a Packard Sample Oxidizer System 307. The CO2 formed was mixed with CarbosorbTM and PermafluorTM and measured by LSC.

[2] = Pharmacokinetics of radioactivity in plasma and blood after a single oral dose of [9-14C]-oleic acid, with or without formoline L112 pre-treatment; format: in vivo, female Göttingen minipigs; settings: untreated minipigs (group A), single oral 10 mg/kg [9-14C]-oleic acid
Experimental: The study consisted of two treatment groups, each consisting of six female Göttingen minipigs. Group A served as the untreated group (control) and group B was pre-treated with polyglucosamine as follows; the animals of group B were dosed with 2 tablets of 500 mg formoline […] (1 g formoline […] in total) followed by approximately 10 ml of water via a syringe. The 2 tablets of polyglucosamine were inserted into 2 gelatine capsules. The minipigs were trained to eat these capsules. Thereafter, animals of both groups were allowed to drink water ad libitum. […] One animal of the control group A was inadequately dosed and was omitted from the experiment. The dosing capsules were prepared the day before the dose administration based on the bodyweight determined shortly before dosing and stored under nitrogen and protected from light at 2-10 °C. Immediately following dosing all animals received approximately 10 ml of water via a syringe. After 15 min, animals were allowed to drink water and eat their morning meal. This meal was eaten within a few minutes. The animals were housed in stainless steel metabolism cages under test conditions, 48 h prior to the experimental start date (dosing). Urine and faeces was collected at ambient temperature at 24 h time intervals, starting at 2 days prior to dosing and ending at 144 h post-dose. At each collection period, the cage was rinsed with 100 mL demi-water. […] The cannula was rinsed with physiological saline after each blood sampling. After the last blood sampling of the day the cannula was filled with 3 % poly vinyl pyrrolidone (PVP) and heparin, and closed with a lid. Subsamples of whole blood were collected for analysis and the remaining blood was used for preparation of plasma by centrifugation for 10 min at 2000 g. At the end of the experiment, the cages were rinsed thoroughly with water/ethanol/Triton X-100 (100/100/1; v/v/v). The minipigs were intravenously anaesthetized via the catheter with 60 mg sodium-pentobarbital per kg bodyweight. Next, the animals were sacrificed by exsanguination from the carotid artery. At sacrifice, the complete liver and contents of the gastrointestinal tract were collected. Prior to analysis of radioactivity, the faeces, liver and contents of the gastrointestinal tract were homogenized using an ultrathurrax. Radioactivity in all samples was determined by liquid scintillation counting on a Tri-Carb 3100TR liquid scintillation counter using QuantaSmartTM software. All counts were converted to DPM using tSIE/AEC (transformed Spectral Index of external standards coupled to Automatic Efficiency Correction). Radioactivity in faeces, blood and liver tissue was determined by combustion analysis using a Packard Sample Oxidizer System 307. The CO2 formed was mixed with CarbosorbTM and PermafluorTM and measured by LSC. Kinetic analysis of radioactivity (blood/plasma) was performed using WinNonlin® 6.3 applying non-compartmental model analysis. The following kinetic parameters were calculated where the data allow: Cmax, Tmax, half-life (t1/2), the volume of distribution, clearance, the Area under the concentration-time curve (AUC) (or AUC0-n, AUC0-∞) and the Mean Residence Time (MRT). Statistical analysis was assessed by using Mann-Whitney U-test (non-parametric test) using the Brightstat.

[3] = cited from earlier work
[4] = untreated minipigs, not a mass-balance study
[5] = up to 144 h post-dose, group A untreated, mean ± SD

Recovery of radioactivity in urine ([1]; 0–24 h, group A untreated, mean ± SD): 0.79 ± 0.05 % of the applied dose
Recovery of radioactivity in urine ([1]; 24–48 h, group A untreated, mean ± SD): 0.28 ± 0.10 % of the applied dose
Recovery of radioactivity in urine ([1]; 48–72 h, group A untreated, mean ± SD): 0.09 ± 0.08 % of the applied dose
Recovery of radioactivity in urine ([1]; 72–96 h, group A untreated, mean ± SD): 0.08 ± 0.05 % of the applied dose
Recovery of radioactivity in urine ([1]; 96–120 h, group A untreated, mean ± SD): 0.05 ± 0.03 % of the applied dose
Recovery of radioactivity in urine ([1]; 120–144 h, group A untreated, mean ± SD): 0.03 ± 0.00 % of the applied dose
Recovery of radioactivity in urine ([1]; -24–0 h (pre-dose), group A untreated, mean ± SD): 0.01 ± 0.00 % of the applied dose
Recovery of radioactivity in urine ([1]; -48–24 h (pre-dose), group A untreated, mean ± SD): 0.00 ± 0.01 % of the applied dose
Recovery of radioactivity in Cagewash ([1]; group A untreated, mean ± SD): 0.07 ± 0.07 % of the applied dose
Recovery of radioactivity in GI-tract contents at sacrifice (144 h post-dose) ([1]; group A untreated, mean ± SD): 0.08 ± 0.04 % of the applied dose
Recovery of radioactivity in Liver at sacrifice (144 h post-dose) ([1]; group A untreated, mean ± SD): 0.37 ± 0.07 % of the applied dose
Total excreted (sum urine, faeces, cagewash) ([1]; group A untreated, mean ± SD): 7.90 ± 3.13 % of the applied dose
Overall recovery of the dosed amount of radioactivity (based on the AUC0-12h) [1, 4]: 34.7%
Overall recovery of the dosed amount of radioactivity (based on the Cmax) [1, 4]: 13.9%
Recovery of radioactivity in faeces, Total [1, 5]: 6.51 ± 2.88 % of the applied dose
Recovery of radioactivity in urine, Total [1, 5]: 1.33 ± 0.20 % of the applied dose
AUC(0-12h) ([2]; blood): 40.0 ± 4.8 µg·h/g
AUC(0-24h) ([2]; blood): 61.7 ± 13.1 µg·h/g
AUC(0-48h) ([2]; blood): 88.3 ± 19.0 µg·h/g
AUC(0-60h) ([2]; blood): 97.2 ± 20.6 µg·h/g
AUC(0-72h) ([2]; blood): 105 ± 22 µg·h/g
AUCall(0-144h) ([2]; blood): 139 ± 25 µg·h/g
Cl ([2]; blood): 48.4 ± 7.9 g/h/kg
Cmax ([9-14C]-oleic acid and/or its metabolites) ([2]; blood): 8.5 ± 2.2 µg/g
MRTlast ([2]; blood): 43.6 ± 3.1 h
Tmax ([9-14C]-oleic acid and/or its metabolites) ([2]; blood): 4 ± 3 h
Vz ([2]; blood): 8860 ± 1848 g/kg
AUC(0-12h) ([2]; plasma): 65.6 ± 6.0 µg·h/g
AUC(0-24h) ([2]; plasma): 98.4 ± 17.2 µg·h/g
AUC(0-48h) ([2]; plasma): 136 ± 28 µg·h/g
AUC(0-60h) ([2]; plasma): 148 ± 31 µg·h/g
AUC(0-72h) ([2]; plasma): 157 ± 32 µg·h/g
AUCall(0-144h) ([2]; plasma): 190 ± 38 µg·h/g
Cl ([2]; plasma): 40.7 ± 5.5 g/h/kg
Cmax ([9-14C]-oleic acid and/or its metabolites) ([2]; plasma): 14.1 ± 3.6 µg/g
MRTlast ([2]; plasma): 35.9 ± 1.8 h
Tmax ([9-14C]-oleic acid and/or its metabolites) ([2]; plasma): 4 ± 3 h
Vz ([2]; plasma): 7008 ± 2962 g/kg
Structure (SMILES): CCCCCCCC/C=[14CH]\CCCCCCCC(=O)O [[9-^14C]-oleic acid]

Structure (SMILES): CCCCCCCC/C=C\CCCCCCCC(=O)O [oleic acid]
Excreted in the faeces ([3]; 31 test persons with normal fat assimilation, oral doses, radioactively labelled, after 6 days): less than 10%
Absorption after oral administration ([3]; untreated subjects): absorbed practically completely
